In US20240316047A1, “INHIBITORS OF RNA HELICASE DHX9 AND USES THEREOF” (ACCENT THERAPEUTICS, INC., priority 2022, published 2024):

Target: Human recombinant DHX9 protein (Homo sapiens (Human), UniProt Q08211)
Assay: DHX9 ATPase assay (ADP-Glo)
Assay type: biochemical
Settings: for IC50: read-out: DHX9 Biochemical Inflection Point

Chain of Human recombinant DHX9 protein (Q08211 whole entry): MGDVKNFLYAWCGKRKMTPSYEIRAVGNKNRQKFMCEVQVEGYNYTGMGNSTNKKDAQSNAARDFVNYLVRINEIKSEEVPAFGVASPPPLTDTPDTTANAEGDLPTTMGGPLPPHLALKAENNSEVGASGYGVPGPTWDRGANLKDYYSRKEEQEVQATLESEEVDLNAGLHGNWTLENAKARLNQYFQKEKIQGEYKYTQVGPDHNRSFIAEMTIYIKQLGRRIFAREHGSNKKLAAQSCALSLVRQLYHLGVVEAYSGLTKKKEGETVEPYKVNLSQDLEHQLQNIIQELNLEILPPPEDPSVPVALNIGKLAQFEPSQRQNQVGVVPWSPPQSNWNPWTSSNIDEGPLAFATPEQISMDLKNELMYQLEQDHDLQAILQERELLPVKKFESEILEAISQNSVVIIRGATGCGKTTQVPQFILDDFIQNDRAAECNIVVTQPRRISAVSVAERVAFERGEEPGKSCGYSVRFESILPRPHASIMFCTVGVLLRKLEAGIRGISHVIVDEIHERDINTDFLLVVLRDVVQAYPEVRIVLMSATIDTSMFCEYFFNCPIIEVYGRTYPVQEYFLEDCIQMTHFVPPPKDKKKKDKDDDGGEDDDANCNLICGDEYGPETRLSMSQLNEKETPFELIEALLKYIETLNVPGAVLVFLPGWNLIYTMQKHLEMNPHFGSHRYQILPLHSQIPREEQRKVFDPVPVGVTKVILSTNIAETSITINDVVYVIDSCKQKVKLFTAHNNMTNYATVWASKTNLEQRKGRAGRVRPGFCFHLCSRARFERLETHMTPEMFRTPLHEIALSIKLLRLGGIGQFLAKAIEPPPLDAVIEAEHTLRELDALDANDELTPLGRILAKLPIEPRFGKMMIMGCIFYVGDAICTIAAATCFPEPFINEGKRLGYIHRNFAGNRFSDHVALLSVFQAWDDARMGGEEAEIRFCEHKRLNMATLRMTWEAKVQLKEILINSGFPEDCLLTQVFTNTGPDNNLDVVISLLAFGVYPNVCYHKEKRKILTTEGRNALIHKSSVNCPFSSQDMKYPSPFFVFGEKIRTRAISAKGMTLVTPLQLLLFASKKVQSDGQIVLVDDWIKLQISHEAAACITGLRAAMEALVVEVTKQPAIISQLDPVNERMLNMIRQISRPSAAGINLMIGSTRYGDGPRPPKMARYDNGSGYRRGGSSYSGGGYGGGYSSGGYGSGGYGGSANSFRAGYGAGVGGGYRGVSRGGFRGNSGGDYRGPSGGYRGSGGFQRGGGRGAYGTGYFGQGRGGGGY

Compound	DHX9 Biochemical Max Inhibition	IC50
CS(=O)(=O)Nc1cc(Cl)cc(NC(=O)c2cc(-c3ncccc3C(F)(F)F)cs2)c1 [Example 223]	75.7%	56.5 nM
CS(=O)(=O)Nc1cc(Cl)cc(NC(=O)c2cc(-c3ncc(F)cc3OCc3cncc(F)c3)cs2)c1 [Example 225]	74.2%	6.9 nM
CC(C)c1sc(C(=O)Nc2cc(Cl)cc(NS(C)(=O)=O)c2)cc1-c1ccccn1 [Example 233]	80.3%	45.5 nM
Cc1sc(C(=O)Nc2cc(Cl)cc(NS(C)(=O)=O)c2)cc1-c1cn(Cc2ccccc2)nn1 [Example 235]	78.1%	35.8 nM
Cc1sc(C(=O)Nc2cc(Cl)cc(NS(C)(=O)=O)c2)cc1-c1cn(-c2ccccc2)nn1 [Example 236]	68.9%	52.1 nM
CS(=O)(=O)Nc1cc(Cl)cc(NC(=O)c2cc(-c3ncccc3Oc3cccnc3)cs2)c1 [Example 239]	67.7%	8 nM
Cc1sc(C(=O)Nc2cc(Cl)cc(NS(C)(=O)=O)c2)cc1-c1c(F)cccc1OCc1ccccc1 [Example 240]	71%	353 nM
CS(=O)(=O)Nc1cc(Cl)cc(NC(=O)c2cc(Br)cs2)c1 [Example 241]	63.8%	115 nM
COC(=O)[C@@H]1CCCN1c1csc(C(=O)Nc2cc(Cl)cc(NS(C)(=O)=O)c2)c1 [Example 242]	69.7%	105 nM
Cc1cc(C(=O)Nc2cc(Cl)cc(NS(=O)(=O)C3CC3)c2)cn1-c1ccc(N2CCOCC2)cn1 [Example 247]	70%	131 nM

Continued by falling IC50, values first:

DHX9 Biochemical Max Inhibition	IC50	Compound
67.5%	186 nM	CS(=O)(=O)Nc1cc(Cl)cc(NC(=O)c2cc(N3CCN(CC(F)(F)F)CC3)cs2)c1 [Example 246]
70.8%	185 nM	Cc1cc(C(=O)Nc2cc(Cl)cc(NS(=O)(=O)C(F)F)c2)cn1-c1ccc(N2CCOCC2)cn1 [Example 248]
71.4%	121 nM	CS(=O)(=O)Nc1cc(Cl)cc(NC(=O)c2cc(N3CCOCC3)cs2)c1 [Example 245]
65.9%	93 nM	CS(=O)(=O)Nc1cc(Cl)cc(NC(=O)c2cc3ccncc3s2)c1 [Example 230]
73.2%	92.3 nM	CS(=O)(=O)Nc1cc(Cl)cc(NC(=O)c2cc(C3CCNCC3)cs2)c1 [Example 243]
71.9%	73.3 nM	CS(=O)(=O)Nc1cc(Cl)cc(NC(=O)c2cc(N3CCNCC3)cs2)c1 [Example 244]
67.2%	65.5 nM	CS(=O)(=O)Nc1cc(Cl)cc(NC(=O)c2cc(-c3ncccc3COc3cc(F)cc(F)c3)cs2)c1 [Example 228]
72.9%	22.9 nM	CN(c1ncccn1)c1cccnc1-c1csc(C(=O)Nc2cc(Cl)cc(NS(C)(=O)=O)c2)c1 [Example 238]
73.5%	21 nM	CS(=O)(=O)Nc1cc(Cl)cc(NC(=O)c2cc(-c3ncccc3Nc3ncccn3)cs2)c1 [Example 237]
84.6%	9.5 nM	COCc1sc(C(=O)Nc2cc(Cl)cc(NS(C)(=O)=O)c2)cc1-c1ccccn1 [Example 234]
73.6%	8.4 nM	CCS(=O)(=O)Nc1cc(Cl)cc(NC(=O)c2cc(-c3ncc(F)cc3C)cs2)c1 [Example 226]
70.6%	7.2 nM	Cc1sc(C(=O)Nc2cc(Cl)cc(NS(C)(=O)=O)c2)cc1-c1ncccc1O [Example 227]
67.3%	6.4 nM	CCS(=O)(=O)Nc1cc(Cl)cc(NC(=O)c2cc(-c3ncccc3C)cs2)c1 [Example 224]
64.1%	2.8 nM	CCS(=O)(=O)Nc1cc(Cl)cc(NC(=O)c2cc(C)n(-c3ccc(N4CCOCC4)cn3)c2)c1 [Example 249]
